Experiments:
[1] = biological target: T1, Metabotropic glutamate receptor 3 (Homo sapiens, UniProt Q14832); assay: Displacement of [3H]-341495 binding to membranes expressing recombinant human Metabotropic glutamate receptor 3
[2] = biological target: T2, Metabotropic glutamate receptor 2 (Homo sapiens, UniProt Q14416); assay: Evaluation of the functional effect on cAMP responses in RGT cells expressing human mGlu2 receptor; type: cell-based
[3] = biological target: T1, Metabotropic glutamate receptor 3; assay: Evaluation of the functional effect on cAMP responses in RGT cells expressing human mGlu3 receptor; type: cell-based
[4] = biological target: T2, Metabotropic glutamate receptor 2; assay: Displacement of [3H]-341495 binding to membranes expressing recombinant human Metabotropic glutamate receptor 2

T2 sequence (Q14416 whole entry): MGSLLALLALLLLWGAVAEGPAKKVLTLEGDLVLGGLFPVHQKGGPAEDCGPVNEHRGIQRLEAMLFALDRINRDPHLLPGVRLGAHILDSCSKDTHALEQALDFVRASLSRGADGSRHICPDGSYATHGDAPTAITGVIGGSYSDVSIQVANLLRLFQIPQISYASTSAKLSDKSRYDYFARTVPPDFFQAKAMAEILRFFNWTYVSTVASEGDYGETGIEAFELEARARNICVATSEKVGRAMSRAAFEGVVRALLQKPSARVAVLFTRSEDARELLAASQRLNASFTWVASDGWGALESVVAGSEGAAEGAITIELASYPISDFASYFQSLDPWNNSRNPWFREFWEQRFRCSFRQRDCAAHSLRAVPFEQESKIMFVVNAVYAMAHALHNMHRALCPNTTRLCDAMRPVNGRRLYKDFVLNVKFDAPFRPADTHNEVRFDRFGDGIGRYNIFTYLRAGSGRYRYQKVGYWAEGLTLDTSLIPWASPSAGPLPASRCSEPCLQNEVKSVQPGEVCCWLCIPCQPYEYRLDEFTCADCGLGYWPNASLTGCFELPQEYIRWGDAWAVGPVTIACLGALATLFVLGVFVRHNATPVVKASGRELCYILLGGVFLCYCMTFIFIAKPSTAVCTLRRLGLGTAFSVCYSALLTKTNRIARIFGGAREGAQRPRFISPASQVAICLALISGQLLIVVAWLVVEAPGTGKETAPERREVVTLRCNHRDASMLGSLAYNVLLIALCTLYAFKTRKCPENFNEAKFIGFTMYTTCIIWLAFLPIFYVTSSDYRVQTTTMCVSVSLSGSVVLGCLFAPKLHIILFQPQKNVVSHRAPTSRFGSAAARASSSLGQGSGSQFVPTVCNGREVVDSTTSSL
T1 sequence (Q14832 whole entry): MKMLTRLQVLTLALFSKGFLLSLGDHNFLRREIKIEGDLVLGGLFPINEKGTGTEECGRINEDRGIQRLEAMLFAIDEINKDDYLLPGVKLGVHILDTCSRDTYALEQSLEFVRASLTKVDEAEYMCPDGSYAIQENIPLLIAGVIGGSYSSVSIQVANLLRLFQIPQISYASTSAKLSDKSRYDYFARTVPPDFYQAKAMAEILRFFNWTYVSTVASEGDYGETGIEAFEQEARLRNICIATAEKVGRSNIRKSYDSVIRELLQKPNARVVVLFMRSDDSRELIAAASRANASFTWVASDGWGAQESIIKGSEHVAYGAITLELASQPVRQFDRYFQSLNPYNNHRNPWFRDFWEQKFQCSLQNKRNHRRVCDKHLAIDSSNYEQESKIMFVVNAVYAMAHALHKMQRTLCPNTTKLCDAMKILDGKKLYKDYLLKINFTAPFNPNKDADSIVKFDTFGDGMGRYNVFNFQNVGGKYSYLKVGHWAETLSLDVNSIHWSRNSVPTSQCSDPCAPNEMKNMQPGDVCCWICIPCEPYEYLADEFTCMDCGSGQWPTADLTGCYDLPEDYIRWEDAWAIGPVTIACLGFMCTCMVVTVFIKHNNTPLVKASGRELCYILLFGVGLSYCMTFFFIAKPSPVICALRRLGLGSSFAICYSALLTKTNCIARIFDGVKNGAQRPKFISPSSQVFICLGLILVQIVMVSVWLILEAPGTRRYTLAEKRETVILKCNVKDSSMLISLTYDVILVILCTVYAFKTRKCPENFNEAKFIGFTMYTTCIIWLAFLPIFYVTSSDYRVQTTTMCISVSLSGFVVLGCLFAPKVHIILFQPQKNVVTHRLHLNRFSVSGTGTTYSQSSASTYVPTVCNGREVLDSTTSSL

C[C@@H]1C[C@H]2[C@H](C(=O)O)[C@H]2[C@]1(N)C(=O)O
Ki [1]: 146 nM | IC50 [2]: 1750 nM

C[C@@H]1C[C@@](N)(C(=O)O)[C@@H]2[C@@H](C(=O)O)[C@@H]21 (stereo in doubt; (+)-13)
IC50 [3]: 1050 nM | Ki [4]: 165 nM | Ki [1]: 302 nM | EC50 [2]: 161 nM

C[C@H]1C[C@@](N)(C(=O)O)[C@@H]2[C@@H](C(=O)O)[C@@H]21
EC50 [3]: 34 nM | Ki [1]: 511 nM | EC50 [2]: 45 nM

N[C@@]1(C(=O)O)CC[C@H]2[C@H](C(=O)O)[C@H]21
Ki [4]: 74 nM | EC50 [2]: 10 nM

C[C@@H]1C[C@@](N)(C(=O)O)[C@@H]2[C@@H](C(=O)O)[C@@H]21 (stereo in doubt; 13)
IC50 [3]: 2940 nM | Ki [4]: 409 nM | Ki [1]: 570 nM | EC50 [2]: 397 nM

C[C@H]1C[C@](N)(C(=O)O)[C@H]2[C@H](C(=O)O)[C@H]21
EC50 [3]: > 100000 nM | Ki [4]: > 100000 nM | Ki [1]: > 100000 nM | EC50 [2]: > 100000 nM
